Results from patent US20250339396A1 (COSMAS THERAPEUTICS DEVELOPMENT INC., priority 2021, published 2025).
Where two headings read alike, the source gives them in different places. Blank lines part the entries; values can stand above or below the compound they belong to.

What was measured:
[1] = dose of 40 mg/kg; cited from earlier work
[2] = in vivo; cited from earlier work
[3] = Oral bioavailability and brain penetrance of UCM765 and UCM924
[4] = cited from earlier work
neuropathic (SNI) rats = assay: Mechanical allodynia (von Frey, 50% paw withdrawal threshold) after spared nerve injury (SNI); assay type: in vivo, rat; details: for Area Under the Curve (AUC) of withdrawal threshold vs. vehicle, Bonferroni p (FIG. 2B) / withdrawal threshold over time vs. vehicle (two-way ANOVA, FIG. 2A): dose not given for prodrugs E, F; for withdrawal threshold over time vs. vehicle (two-way ANOVA, FIG. 2A): per os; for withdrawal threshold over time vs. vehicle (two-way ANOVA, FIG. 1A): 0.5-8 h; for withdrawal threshold vs. vehicle, Bonferroni post-hoc p: after 1 hour; for AUC of withdrawal threshold vs. vehicle (FIG. 3B): p<0.01
Method: Experiments were performed in male Sprague-Dawley rats (body weight: 250-300 g; Charles River Laboratories, St. Constant, QC, Canada) and adult male C57BL mice (body weight: 25-30 g; inbred). All animals were housed in small groups at a constant temperature of 22° C., with food and water provided ad libitum, and maintained under a 12 h light/dark cycle (lights on at 7:00 AM; lights off at 7:00 PM). All experimental procedures were conducted in accordance with the guidelines of the Canadian Council on Animal Care, and the protocols were approved by the Animal Care Committee at McGill University.
The different prodrug compounds as synthesized in Example 2 were tested and compared with Gabapentin (150 mg/kg, purchased from Sigma Aldrich, US). Prodrug was dissolved in saline, water, or a vehicle composed of 40% PEG400 and 60% water. Gabapentin was dissolved in a vehicle composed of 40% PEG400 and 60% water. All drugs (doses see the procedure descriptions below) were administrated per os (gavage) through a curved feeding tube (20 G for rats and 22 G for mice) at the beginning of the experiment unless otherwise specified. The dose of prodrug was chosen based on its pharmacokinetic properties, and the doses of Gabapentin were chosen from literature (Lopez-Canul, Palazzo et al. 2015).
Spared nerve injury was performed according to the method of (Decosterd I and Woolf CJ, 2000), see also Lopez-Canul et al., 2015. Rats and mice were anesthetized with isoflurane. The sciatic nerve was exposed at mid-thigh level distal to the trifurcation and freed of connective tissue; the three peripheral branches (sural, common peroneal, and tibial nerves) of the sciatic nerve were exposed without stretching nerve structures. Both tibial and common peroneal nerves were ligated and transected together. Tactile allodynia was absent in healthy (pre-surgery) and sham rats, and the mechanical withdrawal threshold in rats before SNI (pre-surgery) or sham was very close to the cutoff of dynamic plantar aesthesiometer (30 g) (Ugo Basile, Varese, Italy).
On day 14 after surgery, individual rats were placed in a test chamber (clear plastic wire mesh-bottomed cage) and allowed to acclimatize for 30 to 40 minutes. Von Frey filaments (Stoelting, Wood Dale, IL) were used to measure the 50% paw withdrawal threshold using the up-and-down method reported by {Chaplan, 1994 #399}. […] Lifting of the paw indicated a positive response and prompted the use of the […], whereas absence of paw withdrawal after 5 seconds indicated a negative response and prompted the next filament of increasing weight. This paradigm continued for 4 more measurements after the initial change of the behavioral response or until 5 consecutive negative or 4 consecutive positive responses. Based on observations on normal, unoperated, and sham-operated rats, the cutoff value of 15 g was selected as the upper limit for testing because stiffer hairs tended to raise the entire limb rather than to buckle, substantially changing the nature of the stimulus. The resulting scores were used to calculate the 50% response threshold using the formula proposed by Dixon. Allodynia was considered to be present when paw withdrawal thresholds were <4 g, and drugs raising this threshold were considered antiallodynic {Lopez-Canul, 2015}. Accordingly, all nerve ligated rats were verified to be allodynic, responding to a stimulus of <4 g. Rats without mechanical allodynia were excluded. After the determination of the basal response, allodynia was assessed at baseline, 0.5, 1, 1.5, 2, 2.5, 3, 4, 5, 6, 7, and 8 hours post-administration for each treatment described below. Groups of 5 to 6 rats per treatment were used, with each animal being used for 1 treatment only. […]

Kp ([3]; brain): 2.5
bioavailability ([3]; in vivo, po): 2%
Structure (SMILES): COc1cccc(N(CCNC(C)=O)c2ccccc2)c1 [UCM765, N-{2-[(3-methoxyphenyl)-phenylamino]ethyl}acetamide]
restorative sleep (NREM sleep) [1]: facilitated restorative sleep
anti-anxiety properties [2]: possesses anti-anxiety properties

Structure (SMILES): COc1ccc2[nH]cc(CCNC(C)=O)c2c1 [MLT, Melatonin]
half-life ([4]; in vivo): < 30 min

Structure (SMILES): COc1ccc2cccc(CCNC(C)=O)c2c1 [Agomelatine]
bioavailability ([4]; at the therapeutic oral dose): < 5%

Structure (SMILES): CC(=O)N(CCN(c1ccc(F)cc1)c1cccc(Br)c1)C(=O)OCOC(=O)[C@@H](N)CC(C)C.Cl [Prodrug F]
withdrawal threshold vs. vehicle, Bonferroni post-hoc p (FIG. 2A) (neuropathic (SNI) rats; after 5, 6 and 7 hours): < 0.0001
withdrawal threshold vs. vehicle, Bonferroni post-hoc p (FIG. 2A) (neuropathic (SNI) rats; after 3 hours): 0.05
Area Under the Curve (AUC) of withdrawal threshold vs. vehicle, Bonferroni p (FIG. 2B) (neuropathic (SNI) rats): < 0.001
withdrawal threshold over time vs. vehicle (two-way ANOVA, FIG. 2A) (neuropathic (SNI) rats): significant difference

Structure (SMILES): CC(=O)N(CCN(c1ccc(F)cc1)c1cccc(Br)c1)C(=O)OC(C)OC(=O)CN.Cl (stereo not shown) [Prodrug C, 1-((acetyl(2-((3-bromophenyl)(4-fluorophenyl)amino)ethyl)carbamoyl)oxy)ethyl 2-aminoacetate hydrochloride]
withdrawal threshold over time vs. vehicle (two-way ANOVA, FIG. 1A) (neuropathic (SNI) rats; 50 mg/kg per os): significantly increased the withdrawal threshold

Structure (SMILES): CCC(=O)NCC[C@@H]1CCc2ccc3c(c21)CCO3 [Ramelteon]
absolute oral bioavailability ([4]; extensive first-pass metabolism): 1.8%

Structure (SMILES): CCOC(=O)OCN(CCN(c1ccc(F)cc1)c1cccc(Br)c1)C(C)=O [Prodrug B, (N-(2-((3-bromophenyl)(4-fluorophenyl)amino)ethyl)acetamido) methyl ethyl carbonate]
withdrawal threshold over time vs. vehicle (two-way ANOVA, FIG. 1A) (neuropathic (SNI) rats; 50 mg/kg per os): significantly increased the withdrawal threshold
withdrawal threshold vs. vehicle, Bonferroni post-hoc p (neuropathic (SNI) rats; 50 mg/kg per os): < 0.0001

Structure (SMILES): CC(=O)N(CCN(c1ccc(F)cc1)c1cccc(Br)c1)COC(=O)C(C)(C)C [Prodrug A, (N-(2-((3-bromophenyl)(4-fluorophenyl)amino)ethyl)acetamido) methyl pivalate]
Area Under the Curve (AUC) of withdrawal threshold vs. vehicle, Bonferroni p (FIG. 1B) (neuropathic (SNI) rats; 50 mg/kg per os): < 0.01
withdrawal threshold over time vs. vehicle (two-way ANOVA, FIG. 1A) (neuropathic (SNI) rats; 50 mg/kg per os): significantly increased the withdrawal threshold
withdrawal threshold vs. vehicle, Bonferroni post-hoc p (neuropathic (SNI) rats; 50 mg/kg per os): < 0.001

Structure (SMILES): CC(=O)N(CCN(c1ccc(F)cc1)c1cccc(Br)c1)C(=O)OCOC(=O)CN [Prodrug D-2, ((acetyl(2-((3-bromophenyl)(4-fluorophenyl)amino)ethyl)carbamoyl)oxy)methyl 2-aminoacetate methane-sulfonate]
effect on withdrawal threshold in the SNI model (FIG. 3A) (neuropathic (SNI) rats; 50 mg/kg): not effective
AUC of withdrawal threshold vs. vehicle (FIG. 3B) (neuropathic (SNI) rats; 50 mg/kg): significant pro-nociceptive effect
effect on withdrawal threshold in the SNI model (FIG. 3A) (neuropathic (SNI) rats; 100 mg/kg): effective
AUC of withdrawal threshold vs. vehicle (FIG. 3B) (neuropathic (SNI) rats; 100 mg/kg): modest, but significant anti-nociceptive effect

Structure (SMILES): CC(=O)N(CCN(c1ccc(F)cc1)c1cccc(Br)c1)C(=O)OCOC(=O)C1CCCN1.Cl (stereo not shown) [Prodrug E, ((acetyl(2-((3-bromophenyl)(4-fluorophenyl)amino)ethyl)carbamoyl)oxy)methyl pyrrolidine-2-carboxylate hydrochloride]
Area Under the Curve (AUC) of withdrawal threshold vs. vehicle, Bonferroni p (FIG. 2B) (neuropathic (SNI) rats): < 0.05
withdrawal threshold vs. vehicle, post-hoc p (FIG. 2A) (neuropathic (SNI) rats; hour 2, 4 and 5): < 0.05
withdrawal threshold, treatment vs. vehicle p (FIG. 2A) (neuropathic (SNI) rats; overall): 0.04
withdrawal threshold over time vs. vehicle (two-way ANOVA, FIG. 2A) (neuropathic (SNI) rats): different from vehicle
